The values below come from patent KR20220113942A, “제조성 및 용출성이 우수한 소형 정제” (스미토모 파마 가부시키가이샤, priority 2019, dated 2021).

The data set in a line: Test Example 2: evaluation of tabletability (capping on tableting). The data set is classed as physicochemical. Particulars: conclusion in words from Table 22.

`C[C@@H]1N=C(N)NC(N(C)C)=N1` [이메글리민, (6R)-N2,N2,6-트리메틸-3,6-디히드로-1,3,5-트리아진-2,4-디아민, 염산염]: the compression moldability entry was “압축 성형성이 나빠서”. Besides, the “tendency to tableting failure (capping) as drug content ratio in the tablet rises” value (high drug content ratio in the tablet) is on record as “타정 장해(캐핑)가 발생하기 쉬움”.
